Consider 11 compounds from patent US20240400553A1, “AMINE BASED MATRIPTASE 2 INHIBITORS AND USES THEREOF” (Disc Medicine, Inc., priority 2023, published 2024).

One may read the Ki as a dissociation constant, usually derived from enzyme kinetics or from competition with a known ligand.

The assay addresses T1, Human Recombinant Matriptase 2 (Homo sapiens, UniProt Q8IU80).
T1 construct: made in house
T1 sequence (Q8IU80 1-811): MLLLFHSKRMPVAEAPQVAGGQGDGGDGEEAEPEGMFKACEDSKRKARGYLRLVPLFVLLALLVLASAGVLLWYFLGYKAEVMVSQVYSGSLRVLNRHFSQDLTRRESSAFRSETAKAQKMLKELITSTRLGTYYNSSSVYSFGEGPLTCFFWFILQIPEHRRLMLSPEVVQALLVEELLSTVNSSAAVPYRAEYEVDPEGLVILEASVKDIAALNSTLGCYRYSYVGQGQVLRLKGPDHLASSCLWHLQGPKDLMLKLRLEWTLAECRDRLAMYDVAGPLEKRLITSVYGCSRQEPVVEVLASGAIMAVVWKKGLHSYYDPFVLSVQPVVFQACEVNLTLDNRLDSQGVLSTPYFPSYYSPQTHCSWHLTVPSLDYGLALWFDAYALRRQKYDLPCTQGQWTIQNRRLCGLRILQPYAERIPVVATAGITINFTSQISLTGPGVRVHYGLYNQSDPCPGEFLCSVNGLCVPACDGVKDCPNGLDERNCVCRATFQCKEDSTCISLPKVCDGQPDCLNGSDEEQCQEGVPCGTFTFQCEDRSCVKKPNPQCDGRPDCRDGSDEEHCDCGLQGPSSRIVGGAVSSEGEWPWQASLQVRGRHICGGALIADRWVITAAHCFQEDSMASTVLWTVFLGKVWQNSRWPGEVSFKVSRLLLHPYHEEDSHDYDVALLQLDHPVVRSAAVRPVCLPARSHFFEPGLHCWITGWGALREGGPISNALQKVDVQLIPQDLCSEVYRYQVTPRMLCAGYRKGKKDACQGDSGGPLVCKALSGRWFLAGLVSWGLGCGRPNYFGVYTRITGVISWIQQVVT
The experiment in a line: Matriptase 2 inhibition, fluorescence based assay (Method I). It counts as biochemical. To be noted: Table A; Ki of Matriptase-2 given as class symbols; read-out: Mat-2 Ki. Summed up:
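In-house recombinant enzyme (3.5 nM), preincubated 30 min with compound, then Boc-Gln-Ala-Arg-AMC substrate (62 μM) in 50 mM Tris pH 7.5, 150 mM NaCl, 0.01% gelatin, 1% DMSO, 25 °C. Fluorescence (Ex 360/Em 480 nm) read 60 min after substrate; IC50 from variable-slope sigmoidal fit of % inhibition.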
For `CCOC(=O)c1cc2ccc(CN)nc2n1Cc1cc(NS(=O)(=O)CC[C@@H]2CCCN2)cc2ccccc12` [Compound 269, ethyl 6-(aminomethyl)-1-[(3-{2-[(2S)-pyrrolidin-2-yl]ethanesulfonamido}-naphthalen-1-yl)methyl]-1H-pyrrolo[2,3-b]pyr-idine-2-carboxylate], the Ki was 500 to 3000 nM.

With `CC(C)OC(=O)c1cc2ccc(CN)nc2n1Cc1cc(NS(=O)(=O)CC[C@@H]2CCCN2)cc2ccccc12` [Compound 270, propan-2-yl 6-(amino-methyl)-1-[(3-{2-[(2S)-pyrrolidin-2-yl]ethane-sulfonamido}naphthalen-1-yl)methyl]-1H-pyrrolo-[2,3-b]pyridine-2-car-boxylate], the Ki was in the range of 500 to 3000 nM.

With `CN(C)CCOC(=O)c1cc2ccc(CN)nc2n1Cc1cc(NS(=O)(=O)CC2CCNCC2)cc2ccccc12` [Compound 271, 2-(dimethylamino)ethyl 6-(aminomethyl)-1-({3-[(piperidin-4-yl)meth-anesulfonamido]naph-thalen-1-yl}methyl)-1H-pyrrolo[2,3-b]pyridine-2-carboxylate], the inhibition constant (Ki) was in the range of 500 to 3000 nM.

As to `C[C@@H]1OCCC1S(=O)(=O)Nc1cc(Cn2c(C(=O)O)cc3ccc(CN)nc32)c2ccccc2c1` (stereo partly drawn) [Compound 272, 6-(aminomethyl)-1-({3-[(2S)-2-methyloxolane-3-sulfonamido]naph-thalen-1-yl}methyl)-1H-pyrrolo[2,3-b]pyridine-2-carboxylic acid], the inhibition constant (Ki) lay in the range of 500 to 3000 nM.

With `CC(C)(C)OC(=O)N1CCC(CCS(=O)(=O)Nc2cc(Cn3c(C(=O)O)cc4ccc(CN)nc43)c3ccccc3c2)CC1` [Compound 274, 6-(aminomethyl)-1-{[3-(2-{1-[(tert-butoxy)car-bonyl]piperidin-4-yl}-ethanesulfonamido)naph-thalen-1-yl]methyl}-1H-pyrrolo[2,3-b]pyridine-2-carboxylic acid], the Ki was in the range of 500 to 3000 nM.

Regarding `CC(=O)OC(C)OC(=O)c1cc2ccc(CN)nc2n1Cc1cc(NS(=O)(=O)CC[C@@H]2CCCN2)cc2ccccc12` (stereo partly drawn) [Compound 275, 1-[6-(aminomethyl)-1-[(3-{2-[(2S)-pyrrolidin-2-yl]ethanesulfonamido}naphthalen-1-yl)methyl]-1H-pyrrolo[2,3-b]pyr-idine-2-carbonyloxy]-ethyl acetate], the Ki lay within 500 to 3000 nM.

As for `NCc1ccc2cc(C(=O)O)n(Cc3cc(NS(=O)(=O)[C@@H]4CCOC4)cc4ccccc34)c2n1` [Compound 276], the Ki fell in the range of 500 to 3000 nM.

Consider `CNCCOC(=O)c1cc2ccc(CN)nc2n1Cc1cc(NS(=O)(=O)CC2CCNCC2)cc2ccccc12` [Compound 278, 2-(methylamino)ethyl 6-(aminomethyl)-1-({3-[(piperidin-4-yl)methane-sulfonamido]naphthalen-1-yl}methyl)-1H-pyr-rolo[2,3-b]pyridine-2-carboxylate], for which the Ki is 500 to 3000 nM.

As for `NCc1ccc2cc(C(=O)O)n(Cc3cc(NS(=O)(=O)C4CCCCC4)cc4ccccc34)c2n1` [Compound 279, 6-(aminomethyl)-1-[(3-cyclohexanesulfon-amidonaphthalen-1-yl)-methyl]-1H-pyrrolo[2,3-b]pyridine-2-carboxylic acid], the Ki was 500 to 3000 nM.

In the case of `NCc1ccc2cc(C(=O)O)n(Cc3cc(NS(=O)(=O)[C@H]4CCOC4)cc4ccccc34)c2n1` [Compound 280, 6-(aminomethyl)-1-({3-[(3S)-oxolane-3-sulfon-amido]naphthalen-1-yl}-methyl)-1H-pyrrolo[2,3-b]pyridine-2-carboxylic acid], the inhibition constant (Ki) is 500 to 3000 nM.

In the case of `CN1CCC(COC(=O)c2cc3ccc(CN)nc3n2Cc2cc(NS(=O)(=O)CC[C@H]3CCCN3)cc3ccccc23)CC1` [Compound 281, (1-methylpiperidin-4-yl)methyl 6-(aminometh-yl)-1-[(3-{2-[(2R)-pyr-rolidin-2-yl]ethanesul-fonamido}naphthalen-1-yl)methyl]-1H-pyrrolo-[2,3-b]pyridine-2-car-boxylate], the inhibitory constant (Ki) lay in the range of 500 to 3000 nM.
